Measurements from US4145557A, “(Phenoxyphenyl) alkyl acetates, propionates, and carbamates” (Eli Lilly and Company, priority 1977, dated 1979).
Structures can show the parent of a compound that is named as a salt.

tested on: ultraviolet erythema in guinea pigs; test: Erythema blocking assay (anti-inflammatory activity, ultraviolet erythema, oral); assay type: in vivo, Albino guinea pigs; conditions: Cavia porcellus, po, read-out: Erythema Blocking Assay Oral ED50
Description: Various compounds within the scope of this invention were tested for anti-inflammatory activity in an erythema blocking assay which involved the following test procedure.
A modification of the Winder et al. (1958) method [Winder, C. V., Wax, J., Burr, V. and Posiere, C. E.: "A Study of Pharmacological Influences on Ultraviolet Erythema in Guinea Pigs", Arch. Int. Pharmacodyn., 116, 261, 1958] was used to measure anti-inflammatory activity of these compounds. Albino guinea pigs of either sex weighing 225-300 grams were shaved on the back and chemically (NAIR®, Lotion Hair Remover, Carter Products, N. Y., N. Y.) depitated, 18-20 hours before exposure to ultraviolet light. The animals were fasted overnight. Immediately after the guinea pigs were treated with a test compound, gummed notebook paper reinforcements were placed on their backs, and they were exposed to a high intensity ultraviolet light for seven seconds. The ultraviolet light source was a Hanovia Lamp (Kromayer-Model 10) which was placed in contact with the skin of the guinea pig's back. After exposure, the reinforcements were removed and their backs wiped clean with a water soaked gauze sponge. The unexposed area under the reinforcements provided an area of contrast for grading the erythema. The animals were randomized and placed in clear plastic partitioned holders 10 × 20 cm. wide and 15 cm. high. Beginning one hour after exposure and thereafter at half-hour intervals for another one and one-half hours, the degree of resulting erythema was graded by an arbitrary scoring system based upon the degree of contrast and redness formed. Anti-inflammatory agents delay the development of the erythema and therefore have their greatest effect at the initial grading periods. Therefore, the scores were weighed by a factor of 4, 3, 2, and 1 at the 1.0-, 1.5-, 2.0-, and 2.5-hour scoring times, respectively. The erythema was graded as follows:
Score Appearance of Exposed Area
______________________________________
0 No redness and no contrast
1 Slight redness with a faint reinforcement outline
2 Slight to moderate redness with a distinct outline
3 Marked redness with a distinct circular outline
Total scores from each treatment group of five or six guinea pigs were compared to the control treatment and the percent inhibition calculated as follows:
100 × Control - Treatment/Control = Percent Inhibition
Test compounds were prepared in a suspension of 1 percent methylcellulose in water and administered orally. Guinea pigs were treated orally with 1.0 cc./kg. of the suspensions. Control animals received 1.0 cc./kg. of a 1 percent methylcellulose suspension. The dose that produces a 50 percent inhibition of the erythemic response (ED50) was calculated. The ED50 results in (mg./kg.) are recorded in the following table: […]

SMILES | ED50 [mg/kg]
CN(C)CCc1cccc(Oc2ccccc2)c1.Cl [N,N-Dimethyl-2-(3-phenoxyphenyl)ethylamine hydrochloride] | 7
CC(=O)Oc1ccccc1C(=O)O [A.S.A., reference compound] | 50
CNCCc1cccc(Oc2ccccc2)c1.Cl [N-Methyl-2-(3-phenoxyphenyl)ethylamine hydrochloride] | 10

same assay, conditions: Cavia porcellus; oral, guinea pigs, 50 percent inhibition of erythemic response; single dose in 1 percent methylcellulose, scored 1.0-2.5 hours; read-out: Erythema Blocking Assay Oral ED50

SMILES | ED50 [mg/kg]
CC(C(N)=O)c1cccc(Oc2ccccc2)c1 (stereo not drawn) | 3
CC(CO)c1cccc(Oc2ccccc2)c1 (stereo not drawn) | 2
CNCCC(C)c1cccc(Oc2ccccc2)c1 (stereo not drawn) [drawing 30] | 5
CNCC(C)c1cccc(Oc2ccccc2)c1 (stereo not drawn) [drawing 18] | 1
CC(C(=O)NCC(=O)O)c1cccc(Oc2ccccc2)c1 (stereo not drawn) | 5
CC(CN(C)CC1CC1)c1cccc(Oc2ccccc2)c1 (stereo not drawn) [drawing 23] | 3
CC(C)=CCN(C)CC(C)c1cccc(Oc2ccccc2)c1 (stereo not drawn) [drawing 26] | 5
CCC(=O)OCC(C)c1cccc(Oc2ccccc2)c1 (stereo not drawn) | 10
CC(CNCCc1ccccc1)c1cccc(Oc2ccccc2)c1 (stereo not drawn) | 15
CC(CN(C)CCc1ccccc1)c1cccc(Oc2ccccc2)c1 (stereo not drawn) [drawing 28] | 5
C=CCNCC(C)c1cccc(Oc2ccccc2)c1 (stereo not drawn) [drawing 24] | 10
CC(CNCC1CC1)c1cccc(Oc2ccccc2)c1 (stereo not drawn) | 20
CC(CN(C)C)c1cccc(Oc2ccccc2)c1 (stereo not drawn) [drawing 19] | 8
C=CCN(C)CC(C)c1cccc(Oc2ccccc2)c1 (stereo not drawn) [drawing 25] | 3
NCCc1cccc(Oc2ccccc2)c1 [CH2 CH2 NH2 . HCl] | 75
CNC(=O)C(C)c1cccc(Oc2ccccc2)c1 (stereo not drawn) | 30
CC(C(=O)NO)c1cccc(Oc2ccccc2)c1 (stereo not drawn) | 2
CC(CN)c1cccc(Oc2ccccc2)c1 (stereo not drawn) [drawing 17] | 1
CNC(=O)OCC(C)c1cccc(Oc2ccccc2)c1 (stereo not drawn) | 40
CC(CN(C)C1CC1)c1cccc(Oc2ccccc2)c1 (stereo not drawn) [drawing 22] | 3
CC(CCN)c1cccc(Oc2ccccc2)c1 (stereo not drawn) [drawing 29] | 2
CC(CNC1CC1)c1cccc(Oc2ccccc2)c1 (stereo not drawn) [drawing 20] | 9
CC(c1cccc(Oc2ccccc2)c1)c1nnn[nH]1 (stereo not drawn) [drawing 36] | 10
CC(C(=O)N(C)C)c1cccc(Oc2ccccc2)c1 (stereo not drawn) | 25
CC(=O)OCC(C)c1cccc(Oc2ccccc2)c1 (stereo not drawn) | 8

tested on: not listed separately; test: pK'a determination; assay type: physicochemical; conditions: not given

pKa | SMILES
7.9 | CC(CNC1CC1)c1cccc(Oc2ccccc2)c1 (stereo not drawn) [N-Cyclopropyl-2-(3-phenoxyphenyl)propylamine hydrochloride]
7.7 | CC(CN(C)CCc1ccccc1)c1cccc(Oc2ccccc2)c1 (stereo not drawn) [N-Methyl-N-(2-phenylethyl)-2-(3-phenoxyphenyl)propylamine hydrochloride]
8.3 | CC(CN(C)CC1CC1)c1cccc(Oc2ccccc2)c1 (stereo not drawn) [N-Methyl-N-cyclopropylmethyl-2-(3-phenoxyphenyl)propylamine hydrochloride]
6.9 | CC(CN(C)C1CC1)c1cccc(Oc2ccccc2)c1 (stereo not drawn) [N-Methyl-N-cyclopropyl-2-(3-phenoxyphenyl)propylamine hydrochloride]
7.3 | CC(C(=O)O)c1cccc(Oc2ccccc2)c1 (stereo not drawn) [2-(3-phenoxyphenyl)propionic acid]
7.6 | C=CCN(C)CC(C)c1cccc(Oc2ccccc2)c1 (stereo not drawn) [N-Methyl-N-allyl-2-(3-phenoxyphenyl)propylamine hydrochloride]
6.9 | O=C(O)Cc1cccc(Oc2ccccc2)c1 [2-(3-phenoxyphenyl)acetic acid]
10 | CNCCC(C)c1cccc(Oc2ccccc2)c1 (stereo not drawn) [N-Methyl-3-(3-phenoxyphenyl)butylamine hydrochloride]
8.5 | C=CCNCC(C)c1cccc(Oc2ccccc2)c1 (stereo not drawn) [N-Allyl-2-(3-phenoxyphenyl)propylamine hydrochloride]
5.8 | CC(c1cccc(Oc2ccccc2)c1)c1nnn[nH]1 (stereo not drawn) [5-(α-Methyl-3-phenoxybenzyl)-1H-tetrazole]
10 | CC(CCN)c1cccc(Oc2ccccc2)c1 (stereo not drawn) [3-(3-Phenoxyphenyl)butylamine hydrochloride]

SMILES | pKa
CN(C)CCc1cccc(Oc2ccccc2)c1.Cl [N,N-Dimethyl-2-(3-phenoxyphenyl)ethylamine hydrochloride] | 8.5
CC(C)=CCN(C)CC(C)c1cccc(Oc2ccccc2)c1 (stereo not drawn) [N-Methyl-N-(3-methylbut-2-enyl)-2-(3-phenoxyphenyl)propylamine hydrochloride] | 8.5
CNCCc1cccc(Oc2ccccc2)c1.Cl [N-Methyl-2-(3-phenoxyphenyl)ethylamine hydrochloride] | 9.7

tested on: acetic acid-induced writhing in mice; test: Analgesic writhing test (inhibition of acetic acid-induced writhing); assay type: in vivo, Standard strain albino male mice; conditions: Mus musculus, sc, read-out: Analgesic Writhing Test Subcutaneous ED50
Description: A method similar to that reported by Koster, R., et al., "Acetic Acid for Analgesic Screening" Fed.
Standard strain albino male mice, weighing 16-18 grams, were administered the treatments either subcutaneously or by gastric lavage. At various times after treatment, writhing was induced by the intraperitoneal administration of 60 mg./kg. of acetic acid (0.6 percent). Each treatment group consisted of 6 mice. The total number of writhes for the treatment group were counted in a 10-minute observation period starting 5 minutes after the acetic acid administration. The treatment totals were compared to controls and a percent inhibition calculated as follows:
Percent Inhibition = 100 - (Treatment total/Control Total × 100)
The ED50 values in the table which follows represents the doses in mg. of compound/kg. of body weight which will produce a 50 percent inhibition of the frequency of writhing.

SMILES | ED50 [mg/kg]
CN(C)CCc1cccc(Oc2ccccc2)c1 [drawing 41] | 35
NCCc1cccc(Oc2ccccc2)c1 [CH2 CH2 NH2 . HCl] | 4
CC(=O)Oc1ccccc1C(=O)O [A.S.A., reference compound] | 20
CNCCc1cccc(Oc2ccccc2)c1.Cl [N-Methyl-2-(3-phenoxyphenyl)ethylamine hydrochloride] | 25

same assay, conditions: Mus musculus, sc; subcutaneous, mice, 50 percent inhibition of frequency of writhing; 60 mg./kg. acetic acid intraperitoneal; read-out: Analgesic Writhing Test Subcutaneous ED50

SMILES | ED50 [mg/kg]
CNCC(C)c1cccc(Oc2ccccc2)c1 (stereo not drawn) [drawing 43] | 20
CCC(CNC)c1cccc(Oc2ccccc2)c1 (stereo not drawn) | 20
CC(CN(C)CC1CC1)c1cccc(Oc2ccccc2)c1 (stereo not drawn) [drawing 46] | < 50
CC(CN(C)C)c1cccc(Oc2ccccc2)c1 (stereo not drawn) [drawing 44] | 10
CC(CN)c1cccc(Oc2ccccc2)c1 (stereo not drawn) [drawing 42] | 20
